Our source for the kcat and Km values is US20240368575A1, “AN ENGINEERED YEAST CELL FOR THE DELIVERY OF ANTIBIOTIC-INACTIVATING ENZYMES” (priority 2021, published 2024).

Data set [1] concerns the target P3A variant of the beta-lactamase from Bacillus licheniformis 749/C (BL), SEQ ID NO: 12 (Bacillus licheniformis, UniProt P00808, D288N). Briefly: Steady-state kinetic parameters of purified BL (P3A) beta-lactamase, ampicillin hydrolysis. The data set is classed as biochemical. The following applies: purified BL protein; assay with ampicillin, 30° C., 50 mM HEPES pH 7.5.

Data set [2] deals with CC1(C)S[C@@H]2[C@H](NC(=O)[C@H](N)c3ccccc3)C(=O)N2[C@H]1C(=O)O. Described as above. The following applies: other: purified BL protein, assay with ampicillin, 30° C., 50 mM HEPES pH 7.5. It counts as biochemical, Bacillus licheniformis 749/C.
In data set [3] the target is VIM-2 metallo-beta-lactamase variant (BL2), SEQ ID NO:115 (parent VIM-2, SEQ ID NO:8) (Pseudomonas aeruginosa, UniProt Q9K2N0, E156D/Q48H/Q60R/V27S/V36A). The data set can be described thus: Steady-state kinetic parameters of purified BL2 beta-lactamase, imipenem hydrolysis. The data set is classed as biochemical. The conditions noted are these: purified BL2 protein; assay with imipenem, 30° C., 50 mM HEPES pH 7.5, 50 μM ZnSO4. The method, then: β-lactamase genes bl2 and bl3, encoding respectively the metallo β-lactamases VIM-2 variant of amino acid sequence SEQ ID NO:115 and BcII from Bacillus cereus of amino acid sequence SEQ ID NO:117, were heterologously expressed in S. boulardii.
Each sample was measured in triplicates.

Data set [4] deals with C[C@@H](O)[C@H]1C(=O)N2C(C(=O)O)=C(SCCN=CN)C[C@H]12. Briefly: purified protein, by the assay type. The following applies: other: purified BL3 protein, assay with imipenem, 30° C., 50 mM HEPES pH 7.5, 50 μM ZnSO4.

P3A variant of the beta-lactamase from Bacillus licheniformis 749/C (BL), SEQ ID NO: 12, sequence (P00808 46-307 D288N): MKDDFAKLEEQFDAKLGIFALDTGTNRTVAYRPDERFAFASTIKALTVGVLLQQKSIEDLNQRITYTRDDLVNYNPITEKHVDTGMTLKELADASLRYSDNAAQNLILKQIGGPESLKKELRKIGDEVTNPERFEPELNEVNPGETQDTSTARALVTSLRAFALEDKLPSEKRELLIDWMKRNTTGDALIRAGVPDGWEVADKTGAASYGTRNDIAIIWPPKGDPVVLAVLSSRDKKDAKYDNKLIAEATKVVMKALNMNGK

On to `CC1(C)S[C@@H]2[C@H](NC(=O)[C@H](N)c3ccccc3)C(=O)N2[C@H]1C(=O)O` [ampicillin], for which the kcat in data set [1] was 1,345 s^−1.
Regarding “P3A variant of the beta-lactamase from Bacillus licheniformis 749/C (BL), SEQ ID NO: 12 (Bacillus licheniformis; D288N)”, the Michaelis constant (Km) in data set [2] worked out at 180 µM.
For the compound `C[C@@H](O)[C@H]1C(=O)N2C(C(=O)O)=C(SCCN=CN)C[C@H]12` [imipenem], in data set [3], the Km was determined as 12 µM and the kcat is 200 s⁻¹.
“BcII metallo-beta-lactamase from Bacillus cereus (BL3), SEQ ID NO:117 (Bacillus cereus)”: in data set [4], the Km is 220 µM and the kcat is 115 s⁻¹.

As a reminder, the kcat is the number of substrate molecules converted per active site and unit of time at saturation. For orientation: Km means the concentration of substrate that gives half-maximal velocity.
